The record followed here is patent EP1209158A1, “Substituted beta-carbolines” (Aventis Pharma Deutschland GmbH, priority 2000, dated 2002).

Counter-ions that a name gives are not always drawn.

Assay [1] relates to mouse heterotopic cardiac transplant (BALB/c->C57BL/6 or B6/129). Put plainly: Mouse heterotopic cardiac transplant model. It counts as in vivo. Particulars: oral administration, 25 mg/kg/day for 14 days, starting at transplantation. From the text:
In the mouse heterotopic cardiac transplant model across full histocompatibility barriers (BALB/c->C57BL/6 or B6/129), graft survival is typically limited to 7.3 ± 0.4 days (mean ± SD, […]) (see for example in Hancock WW, Sayegh MH, Zheng XG, Peach R, Linsley PS, Turka LA. Costimulatory function and expression of CD40-ligand, CD80 and CD86 or in vascularized murine cardiac allograft rejection. Proc Natl Acad Sci (USA) 93, 1996, 13967-13972; and Hancock W W, Buelow R, Sayegh MH, Turka LA. Antibody-induced transplant arteriosclerosis is prevented by graft expression of antioxidant and anti-apoptotic genes. Nature Med 4, 1998, 1392-1396).
The effects of oral administration of the compounds according to examples 49 and 60 were tested using 25 mg/kg/day for 14 days, starting at transplantation in said animal model. Whereas grafts in animals receiving the carrier, methylcellulose, rejected by 7 days (6.7 ± 0.8), grafts in compound 49-treated mice survived around 15 days (15.3 ± 0.6), and grafts in those given compound 60 survived for 20 days (20 ± 1). Current immunosuppressive therapies used in transplantation have limited efficacy and/or considerable toxicity.

In a further assay the target is T1, IκBα-kinase complex (Homo sapiens, UniProt O14920+O15111).
T1 construct: IKBα kinase complex was prepared by first diluting 10 mL of HeLa S3 cell-extracts S100 fraction; endogenous in cells; host or cells: HeLa S3 (S100 fraction, 40% ammonium sulfate cut, Superose-6 fractions at about 670 kDa)
As to the kind of experiment: biochemical. The following applies: activated kinase complex from HeLa S3 cell-extracts S100 fraction; 30 minutes pre-incubation at 25°C; biotinylated peptide substrate; read-out: IkB-kinase IC50.

T1 sequence (O14920 whole entry): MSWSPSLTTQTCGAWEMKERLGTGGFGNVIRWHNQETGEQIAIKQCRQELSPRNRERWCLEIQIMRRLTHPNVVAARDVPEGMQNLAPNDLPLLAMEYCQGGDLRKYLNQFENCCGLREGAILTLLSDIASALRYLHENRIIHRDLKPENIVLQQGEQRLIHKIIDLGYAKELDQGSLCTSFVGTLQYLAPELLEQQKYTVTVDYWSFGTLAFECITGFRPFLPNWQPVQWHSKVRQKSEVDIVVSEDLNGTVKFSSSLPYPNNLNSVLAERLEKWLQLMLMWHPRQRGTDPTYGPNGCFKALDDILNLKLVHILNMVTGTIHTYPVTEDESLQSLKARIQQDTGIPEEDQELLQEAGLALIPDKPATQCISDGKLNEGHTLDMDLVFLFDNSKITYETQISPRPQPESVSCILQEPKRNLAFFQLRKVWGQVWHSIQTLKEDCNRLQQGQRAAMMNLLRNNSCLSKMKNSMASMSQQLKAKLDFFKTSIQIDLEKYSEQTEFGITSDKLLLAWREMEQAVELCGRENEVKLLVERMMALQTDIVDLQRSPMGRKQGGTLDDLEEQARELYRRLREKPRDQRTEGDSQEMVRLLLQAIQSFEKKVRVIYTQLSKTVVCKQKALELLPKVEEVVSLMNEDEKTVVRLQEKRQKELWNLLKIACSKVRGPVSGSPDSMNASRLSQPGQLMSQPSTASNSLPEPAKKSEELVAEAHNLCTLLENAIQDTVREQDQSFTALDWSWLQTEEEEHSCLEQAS
T1 sequence (O15111 whole entry): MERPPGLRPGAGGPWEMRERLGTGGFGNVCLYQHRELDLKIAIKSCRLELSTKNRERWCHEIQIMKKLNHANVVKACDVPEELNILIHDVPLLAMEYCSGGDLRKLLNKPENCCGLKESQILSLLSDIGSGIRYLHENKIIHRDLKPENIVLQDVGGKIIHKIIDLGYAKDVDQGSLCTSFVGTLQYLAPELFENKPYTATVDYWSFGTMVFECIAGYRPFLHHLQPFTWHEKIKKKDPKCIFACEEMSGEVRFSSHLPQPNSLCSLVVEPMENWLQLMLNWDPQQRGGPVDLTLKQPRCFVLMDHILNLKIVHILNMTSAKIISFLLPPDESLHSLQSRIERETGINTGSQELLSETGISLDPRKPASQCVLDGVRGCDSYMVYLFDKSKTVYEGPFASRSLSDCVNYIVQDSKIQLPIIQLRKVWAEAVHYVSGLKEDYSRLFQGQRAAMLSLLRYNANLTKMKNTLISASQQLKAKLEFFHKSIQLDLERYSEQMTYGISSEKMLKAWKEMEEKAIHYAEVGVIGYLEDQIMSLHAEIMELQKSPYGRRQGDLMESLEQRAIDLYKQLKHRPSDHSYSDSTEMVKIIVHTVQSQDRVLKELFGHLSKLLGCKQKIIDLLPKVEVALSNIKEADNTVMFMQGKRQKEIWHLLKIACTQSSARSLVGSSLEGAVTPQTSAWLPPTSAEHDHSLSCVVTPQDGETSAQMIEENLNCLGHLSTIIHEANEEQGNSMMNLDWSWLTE
T1 sequence (Q9Y6K9 whole entry partner): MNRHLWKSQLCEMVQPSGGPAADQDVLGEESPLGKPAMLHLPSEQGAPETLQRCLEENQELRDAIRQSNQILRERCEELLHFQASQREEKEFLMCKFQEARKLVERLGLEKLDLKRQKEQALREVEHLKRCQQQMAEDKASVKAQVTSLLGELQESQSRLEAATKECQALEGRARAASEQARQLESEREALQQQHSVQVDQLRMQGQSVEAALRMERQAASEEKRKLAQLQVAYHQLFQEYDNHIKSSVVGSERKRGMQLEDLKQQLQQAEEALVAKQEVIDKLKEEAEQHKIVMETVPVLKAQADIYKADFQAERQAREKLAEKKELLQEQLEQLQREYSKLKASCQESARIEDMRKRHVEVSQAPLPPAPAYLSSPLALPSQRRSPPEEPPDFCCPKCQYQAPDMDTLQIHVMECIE

In turn, “7-chloro-9-(4-fluorobenzoylamino)-β-carboline trifluoroacetate [Example 49]” yielded a graft survival in assay [1] of 15.3 ± 0.6 days. In the case of “7-chloro-9-(Acetyl-methylamino)-β-carboline trifluoroacetate [Example 48]”, the half-maximal inhibitory concentration (IC50) on IκBα-kinase complex was 4 µM. Regarding “7-chloro-9-(methylamino)-β-carboline trifluoroacetate [Example 43]”, the half-inhibitory concentration (IC50) at IκBα-kinase complex was 1 µM. Take `CC(=O)c1nccc2c1[nH]c1cc(Br)ccc12` [Example 2, 1-acetyl-7-bromo-β-carboline]: the IC50 on IκBα-kinase complex turned out to be 0.4 µM.

With `Fc1ccc2c(c1)[nH]c1cnccc12` [Example 3, 7-fluoro-β-carboline], the IC50 at IκBα-kinase complex was 1 µM.

For the compound `CC(C)c1ccc2c(c1)[nH]c1cnccc12` [Example 4, 7-isopropyl-β -carboline hydrochloride], on IκBα-kinase complex, the IC50 was 2.5 µM.

For `N#Cc1ccc2c(c1)[nH]c1cnccc12` [Example 5, 7-cyano-β-carboline], the half-maximal inhibitory concentration (IC50) on IκBα-kinase complex amounted to 1 µM.

As for `O=[N+]([O-])c1ccc2c(c1)[nH]c1cnccc12` [Example 6, 7-nitro-β-carboline hydrochloride], the IC50 at IκBα-kinase complex was 3 µM. The same measure, in the same setting: the result for `O=C(O)c1ccc2c(c1)[nH]c1cnccc12` [Example 7, 7-carboxy-β-carboline trifluoroacetat] reads 65 µM.

Consider `Brc1ccc2c3ccncc3n(Br)c2c1` [Example 8, 7,9-dibromo-β - carboline hydrochloride], for which, on IκBα-kinase complex, the IC50 came to 0.2 µM.

Turning to `Clc1ccc2c3ccncc3n(Cl)c2c1` [Example 9, 7,9-dichloro-β-carboline], the IC50 on IκBα-kinase complex is 0.2 µM. With `CC(=O)c1nccc2c1[nH]c1cc(Cl)ccc12` [Example 13, 1-acetyl-7-chloro-β - carboline], the IC50 on IκBα-kinase complex is 0.5 µM. As to `O=[N+]([O-])n1c2cnccc2c2ccc(Cl)cc21` [Example 14, 7-chloro-9-nitro-β-carboline], the IC50 at IκBα-kinase complex worked out at 4 µM. The same measure, in the same setting: the result for `Nn1c2cnccc2c2ccc(Cl)cc21` [Example 15, 9-amino-7-chloro-β-carboline] reads 0.8 µM; that for `Cn1ccc2c3cccc(O)c3nc-2c1` [Example 23, 8-hydroxy-2-methyl-β-carboline], 22 µM. Same read-out and setting: the same measure for `COc1ccc2c(c1)[nH]c1cnccc12` [Example 30, 7-methoxy-β - carboline]: 5.2 µM. `Fc1c(Cl)ccc2c1[nH]c1cnccc12` [Example 34, 7-chloro-8-fluoro-β - carboline]: the IC50 at IκBα-kinase complex came to 1 µM. Same read-out and setting: the result for `COc1ccc2c(c1)[nH]c1c(C)nccc12` [Example 35, 7-methoxy-1-methyl-β - carboline] reads 3.5 µM; that for `Oc1nccc2c1[nH]c1cc(C(F)(F)F)ccc12` [Example 41, 1-hydroxy-7-trifluoromethyl-β-carboline], 2.2 µM. Take `FC(F)(F)c1ccc2c(c1)[nH]c1cnccc12` [Example 42, 7-trifluoromethyl-β-carboline]: the IC50 at IκBα-kinase complex was 0.8 µM. On to `O=C(Nc1cc(Cl)cc2c1[nH]c1cnccc12)c1cccnc1` [Example 60, N-(6-Chloro-9H-β-carbolin-8-yl)-nicotinamide], for which the graft survival in assay [1] came to 20 ± 1 days.
